Numbers after ± are expanded uncertainties.
Legend:
[1] = 298.15 K; 101 kPa; Liquid; Vibrating tube method
[2] = xn = mol fraction of the nth substance listed; conditions: 298.15 K, 101 kPa, Liquid, Vibrating tube method
[3] = excess molar enthalpy (molar enthalpy of mixing); xn = mol fraction of the nth substance listed; conditions: 298.15 K, 101 kPa, Liquid, Calvet calorimetry

With `CCCOC=O` [propyl methanoate] the mass density [1] was 899.81 ± 1.6 kg/m3.

With `CCCOC(=O)CC` [propyl propanoate] the mass density [1] was 875.61 ± 0.23 kg/m3.

In the case of `ClCCCCCCCl` [1,6-dichlorohexane] + CCCOC(C)=O, the mass density ([2]; x2 = 0.0708) is reported as 1053.44 ± 5.3 kg/m3, the mass density ([2]; x2 = 0.1405) is reported as 1042.95 ± 4.6 kg/m3 and the mass density ([2]; x2 = 0.208) is reported as 1032.5 ± 4 kg/m3. It also gave a mass density ([2]; x2 = 0.2725) of 1022.22 ± 3.4 kg/m3, a mass density ([2]; x2 = 0.3392) of 1011.28 ± 2.9 kg/m3 and a mass density ([2]; x2 = 0.4656) of 989.61 ± 2 kg/m3. For the same compound, the mass density ([2]; x2 = 0.584) was 968.14 ± 1.4 kg/m3, the mass density ([2]; x2 = 0.6947) was 946.95 ± 0.95 kg/m3 and the mass density ([2]; x2 = 0.8017) was 925.34 ± 0.61 kg/m3. For the same compound, the mass density ([2]; x2 = 0.8514) was 914.87 ± 0.49 kg/m3, the mass density ([2]; x2 = 0.902) was 903.96 ± 0.39 kg/m3 and the mass density ([2]; x2 = 0.9502) was 893.34 ± 0.3 kg/m3. It also gave an excess molar enthalpy ([3]; x2 = 0.0861) of 0.00598 ± 0.000239 kcal/mol, an excess molar enthalpy ([3]; x2 = 0.1716) of 0.00478 ± 0.000239 kcal/mol and an excess molar enthalpy ([3]; x2 = 0.2676) of -0.00311 ± 0.000239 kcal/mol. The excess molar enthalpy ([3]; x2 = 0.3149) was -0.00765 ± 0.000239 kcal/mol, the excess molar enthalpy ([3]; x2 = 0.3896) was -0.0146 ± 0.000478 kcal/mol and the excess molar enthalpy ([3]; x2 = 0.4563) was -0.0196 ± 0.000478 kcal/mol. The excess molar enthalpy ([3]; x2 = 0.5169) was -0.0239 ± 0.000717 kcal/mol, the excess molar enthalpy ([3]; x2 = 0.5684) was -0.0253 ± 0.000717 kcal/mol and the excess molar enthalpy ([3]; x2 = 0.5761) was -0.0246 ± 0.000717 kcal/mol. It also gave an excess molar enthalpy ([3]; x2 = 0.6268) of -0.0241 ± 0.000717 kcal/mol, an excess molar enthalpy ([3]; x2 = 0.6841) of -0.022 ± 0.000478 kcal/mol and an excess molar enthalpy ([3]; x2 = 0.7455) of -0.0194 ± 0.000478 kcal/mol. It also gave an excess molar enthalpy ([3]; x2 = 0.8101) of -0.0153 ± 0.000478 kcal/mol, an excess molar enthalpy ([3]; x2 = 0.8793) of -0.0105 ± 0.000239 kcal/mol and an excess molar enthalpy ([3]; x2 = 0.9463) of -0.00574 ± 0.000239 kcal/mol.

For `CCCOC(=O)CCC` [propyl butanoate], the mass density [1] was 867.9 ± 0.23 kg/m3.

Compound `CCCOC(C)=O` [propyl ethanoate] has a mass density [1] of 882.08 ± 0.23 kg/m3.

`CCCOC(=O)CC` [propyl propanoate] + ClCCCl gave a mass density ([2]; x1 = 0.0347) of 1224.28 ± 7.7 kg/m3, a mass density ([2]; x1 = 0.0727) of 1201.87 ± 6.9 kg/m3 and a mass density ([2]; x1 = 0.1118) of 1180.16 ± 6.2 kg/m3. For the same compound, the mass density ([2]; x1 = 0.1538) was 1158.1 ± 5.6 kg/m3, the mass density ([2]; x1 = 0.1965) was 1136.61 ± 4.9 kg/m3 and the mass density ([2]; x1 = 0.2437) was 1114.31 ± 4.3 kg/m3. For the same compound, the mass density ([2]; x1 = 0.2932) was 1092.38 ± 3.7 kg/m3, the mass density ([2]; x1 = 0.3455) was 1070.49 ± 3.2 kg/m3 and the mass density ([2]; x1 = 0.3994) was 1049.24 ± 2.7 kg/m3. It also gave a mass density ([2]; x1 = 0.4599) of 1026.87 ± 2.2 kg/m3, a mass density ([2]; x1 = 0.5188) of 1006.4 ± 1.8 kg/m3 and a mass density ([2]; x1 = 0.5854) of 984.69 ± 1.4 kg/m3. It also gave a mass density ([2]; x1 = 0.6557) of 963.29 ± 1.1 kg/m3, a mass density ([2]; x1 = 0.7316) of 941.63 ± 0.82 kg/m3 and a mass density ([2]; x1 = 0.8153) of 919.43 ± 0.58 kg/m3. It also gave a mass density ([2]; x1 = 0.8998) of 898.5 ± 0.39 kg/m3, a mass density ([2]; x1 = 1) of 875.61 ± 0.23 kg/m3 and an excess molar enthalpy ([3]; x1 = 0.0428) of -0.0129 ± 0.000478 kcal/mol. The excess molar enthalpy ([3]; x1 = 0.1001) was -0.0299 ± 0.000717 kcal/mol, the excess molar enthalpy ([3]; x1 = 0.1671) was -0.0526 ± 0.0012 kcal/mol and the excess molar enthalpy ([3]; x1 = 0.2376) was -0.0758 ± 0.00167 kcal/mol. The excess molar enthalpy ([3]; x1 = 0.3085) was -0.0975 ± 0.00215 kcal/mol, the excess molar enthalpy ([3]; x1 = 0.3736) was -0.115 ± 0.00263 kcal/mol and the excess molar enthalpy ([3]; x1 = 0.4312) was -0.125 ± 0.00263 kcal/mol. It also gave an excess molar enthalpy ([3]; x1 = 0.4782) of -0.132 ± 0.00287 kcal/mol, an excess molar enthalpy ([3]; x1 = 0.5177) of -0.133 ± 0.00287 kcal/mol and an excess molar enthalpy ([3]; x1 = 0.5861) of -0.128 ± 0.00287 kcal/mol. For the same compound, the excess molar enthalpy ([3]; x1 = 0.671) was -0.117 ± 0.00263 kcal/mol, the excess molar enthalpy ([3]; x1 = 0.7874) was -0.0853 ± 0.00191 kcal/mol and the excess molar enthalpy ([3]; x1 = 0.9084) was -0.0437 ± 0.000956 kcal/mol.

In the case of `ClCCCl` [1,2-dichloroethane] + CCCOC(C)=O, the mass density ([2]; x2 = 0.0403) is reported as 1224.14 ± 7.6 kg/m3, the mass density ([2]; x2 = 0.0822) is reported as 1202.71 ± 6.8 kg/m3 and the mass density ([2]; x2 = 0.1258) is reported as 1181.25 ± 6.1 kg/m3. It also gave a mass density ([2]; x2 = 0.1723) of 1159.34 ± 5.4 kg/m3, a mass density ([2]; x2 = 0.2206) of 1137.71 ± 4.7 kg/m3 and a mass density ([2]; x2 = 0.271) of 1116.1 ± 4.1 kg/m3. It also gave a mass density ([2]; x2 = 0.323) of 1094.66 ± 3.5 kg/m3, a mass density ([2]; x2 = 0.3773) of 1073.38 ± 3 kg/m3 and a mass density ([2]; x2 = 0.435) of 1051.79 ± 2.5 kg/m3. For the same compound, the mass density ([2]; x2 = 0.4925) was 1031.26 ± 2 kg/m3, the mass density ([2]; x2 = 0.5542) was 1010.09 ± 1.6 kg/m3 and the mass density ([2]; x2 = 0.6231) was 987.69 ± 1.3 kg/m3. It also gave a mass density ([2]; x2 = 0.693) of 966.04 ± 0.98 kg/m3, a mass density ([2]; x2 = 0.7654) of 944.7 ± 0.73 kg/m3 and a mass density ([2]; x2 = 0.8389) of 924.07 ± 0.52 kg/m3. For the same compound, the mass density ([2]; x2 = 0.9173) was 903.11 ± 0.36 kg/m3, the excess molar enthalpy ([3]; x2 = 0.0472) was -0.0155 ± 0.000478 kcal/mol and the excess molar enthalpy ([3]; x2 = 0.1047) was -0.0332 ± 0.000717 kcal/mol. For the same compound, the excess molar enthalpy ([3]; x2 = 0.1719) was -0.0559 ± 0.0012 kcal/mol, the excess molar enthalpy ([3]; x2 = 0.2424) was -0.0793 ± 0.00167 kcal/mol and the excess molar enthalpy ([3]; x2 = 0.3127) was -0.102 ± 0.00215 kcal/mol. For the same compound, the excess molar enthalpy ([3]; x2 = 0.3806) was -0.117 ± 0.00263 kcal/mol, the excess molar enthalpy ([3]; x2 = 0.4423) was -0.128 ± 0.00287 kcal/mol and the excess molar enthalpy ([3]; x2 = 0.5012) was -0.132 ± 0.00287 kcal/mol. For the same compound, the excess molar enthalpy ([3]; x2 = 0.5663) was -0.13 ± 0.00287 kcal/mol, the excess molar enthalpy ([3]; x2 = 0.6408) was -0.122 ± 0.00263 kcal/mol and the excess molar enthalpy ([3]; x2 = 0.7169) was -0.107 ± 0.00239 kcal/mol. The excess molar enthalpy ([3]; x2 = 0.8115) was -0.0784 ± 0.00167 kcal/mol and the excess molar enthalpy ([3]; x2 = 0.9076) was -0.0447 ± 0.000956 kcal/mol.

For `CCCOC(=O)CCC` [propyl butanoate] + ClCCCl, the mass density ([2]; x1 = 0.0329) was 1222.22 ± 7.7 kg/m3, the mass density ([2]; x1 = 0.065) was 1200.67 ± 7 kg/m3 and the mass density ([2]; x1 = 0.1029) was 1176.79 ± 6.3 kg/m3. The mass density ([2]; x1 = 0.1385) was 1155.7 ± 5.7 kg/m3, the mass density ([2]; x1 = 0.1815) was 1132.09 ± 5 kg/m3 and the mass density ([2]; x1 = 0.2225) was 1110.75 ± 4.5 kg/m3. For the same compound, the mass density ([2]; x1 = 0.2703) was 1087.77 ± 3.9 kg/m3, the mass density ([2]; x1 = 0.3191) was 1065.93 ± 3.4 kg/m3 and the mass density ([2]; x1 = 0.3743) was 1043.05 ± 2.8 kg/m3. For the same compound, the mass density ([2]; x1 = 0.4285) was 1022.26 ± 2.4 kg/m3, the mass density ([2]; x1 = 0.4904) was 1000.19 ± 1.9 kg/m3 and the mass density ([2]; x1 = 0.556) was 978.67 ± 1.6 kg/m3. For the same compound, the mass density ([2]; x1 = 0.628) was 956.91 ± 1.2 kg/m3, the mass density ([2]; x1 = 0.7087) was 934.51 ± 0.89 kg/m3 and the mass density ([2]; x1 = 0.7989) was 911.8 ± 0.61 kg/m3. The mass density ([2]; x1 = 0.8938) was 890.06 ± 0.4 kg/m3, the mass density ([2]; x1 = 1) was 867.9 ± 0.23 kg/m3 and the excess molar enthalpy ([3]; x1 = 0.0365) was -0.00837 ± 0.000239 kcal/mol. The excess molar enthalpy ([3]; x1 = 0.0999) was -0.0229 ± 0.000717 kcal/mol, the excess molar enthalpy ([3]; x1 = 0.1556) was -0.0363 ± 0.000956 kcal/mol and the excess molar enthalpy ([3]; x1 = 0.2176) was -0.0526 ± 0.0012 kcal/mol. The excess molar enthalpy ([3]; x1 = 0.281) was -0.0684 ± 0.00143 kcal/mol, the excess molar enthalpy ([3]; x1 = 0.343) was -0.0851 ± 0.00191 kcal/mol and the excess molar enthalpy ([3]; x1 = 0.3848) was -0.0951 ± 0.00215 kcal/mol. For the same compound, the excess molar enthalpy ([3]; x1 = 0.4055) was -0.098 ± 0.00215 kcal/mol, the excess molar enthalpy ([3]; x1 = 0.4534) was -0.106 ± 0.00239 kcal/mol and the excess molar enthalpy ([3]; x1 = 0.5266) was -0.109 ± 0.00239 kcal/mol. For the same compound, the excess molar enthalpy ([3]; x1 = 0.6369) was -0.0997 ± 0.00215 kcal/mol, the excess molar enthalpy ([3]; x1 = 0.7616) was -0.0746 ± 0.00167 kcal/mol and the excess molar enthalpy ([3]; x1 = 0.8961) was -0.0399 ± 0.000956 kcal/mol.

Reference: the NIST ThermoML archive (doi:10.1016/j.jct.2008.10.007)
